From ChEMBL document CHEMBL3396992, “Synthesis and biological evaluation of pyrazolylthiazole carboxylic acids as potent anti-inflammatory-antimicrobial agents” (2015)
≈ marks a conversion by molar mass, not a printed value. Calls of active or inactive are those of the source. The rule behind the calls is not given here.

Legend:
[1] = system: Pseudomonas aeruginosa; assay: microbe, parasite or virus in culture; details: MTCC 741, 24 h, read-out: DIZ
Description: (§1) Antimicrobial activity against Pseudomonas aeruginosa MTCC 741 assessed as growth inhibition at 4 mg/ml after 24 hrs by agar well diffusion method

[2] = system: Bacillus subtilis; assay: Antimicrobial activity against Bacillus subtilis MTCC 121 assessed as growth inhibition after 24 hrs by agar well diffusion method; type: functional
[3] = system: Bacillus subtilis; assay: Antimicrobial activity against Bacillus subtilis MTCC 121 assessed as growth inhibition at 4 mg/ml after 24 hrs by agar well diffusion method; type: functional; details: for zone of inhibition at 4000 µg/mL: MTCC 121, 24 h, read-out: DIZ
[4] = system: Staphylococcus aureus; assay: Antimicrobial activity against Staphylococcus aureus MTCC 96 assessed as growth inhibition at 4 mg/ml after 24 hrs by agar well diffusion method; type: functional; details: for zone of inhibition at 4000 µg/mL: MTCC 96, 24 h, read-out: DIZ
[5] = system: Rattus norvegicus; assay: Antiinflammatory activity against carrageenan-induced paw edema male Wistar albino rat at 50 mg/kg, ip administered 30 mins prior to carrageenan-challenge measured after 3 hrs relative to control; type: functional; details: route intraperitoneal
[6] = system: Candida albicans; assay: Antimicrobial activity against Candida albicans MTCC 3017 assessed as growth inhibition after 24 hrs by agar well diffusion method; type: functional; details: MTCC 3017, 24 h
[7] = system: Escherichia coli; assay: Antimicrobial activity against Escherichia coli MTCC 1652 assessed as growth inhibition at 4 mg/ml after 24 hrs by agar well diffusion method; type: functional, organism-based
[8] = system: Saccharomyces cerevisiae; assay: Antimicrobial activity against Saccharomyces cerevisiae MTCC 170 assessed as growth inhibition at 4 mg/ml after 24 hrs by agar well diffusion method; type: functional; details: for zone of inhibition at 4000 µg/mL: MTCC 170, 24 h, read-out: DIZ
[9] = system: Rattus norvegicus; assay: Antiinflammatory activity against carrageenan-induced paw edema male Wistar albino rat assessed as edema volume at 50 mg/kg, ip administered 30 mins prior to carrageenan-challenge measured after 2 hrs (reference value: 1.21 +/- 0.16 mL); type: functional; details: route intraperitoneal
[10] = system: Rattus norvegicus; assay: Antiinflammatory activity against carrageenan-induced paw edema male Wistar albino rat at 50 mg/kg, ip administered 30 mins prior to carrageenan-challenge measured after 2 hrs relative to control; type: functional; details: route intraperitoneal
[11] = system: Pseudomonas aeruginosa; details: MTCC 741, 4 mg/ml
Description: as §1

[12] = system: Rattus norvegicus; assay: Antiinflammatory activity against carrageenan-induced paw edema male Wistar albino rat at 50 mg/kg, ip administered 30 mins prior to carrageenan-challenge measured after 4 hrs relative to control; type: functional; details: route intraperitoneal
[13] = system: Staphylococcus aureus; assay: Antimicrobial activity against Staphylococcus aureus MTCC 96 assessed as growth inhibition after 24 hrs by agar well diffusion method; type: functional
[14] = system: Rattus norvegicus; assay: Antiinflammatory activity against carrageenan-induced paw edema male Wistar albino rat at 50 mg/kg, ip administered 30 mins prior to carrageenan-challenge measured after 1 hr relative to control; type: functional; details: route intraperitoneal
[15] = system: Rattus norvegicus; assay: Antiinflammatory activity against carrageenan-induced paw edema male Wistar albino rat assessed as edema volume at 50 mg/kg, ip administered 30 mins prior to carrageenan-challenge measured after 4 hrs (reference value: 1.88 +/- 0.20 mL); type: functional; details: route intraperitoneal
[16] = system: Rattus norvegicus; assay: Antiinflammatory activity against carrageenan-induced paw edema male Wistar albino rat assessed as edema volume at 50 mg/kg, ip administered 30 mins prior to carrageenan-challenge measured after 3 hrs (reference value: 1.73 +/- 0.09 mL); type: functional; details: route intraperitoneal
[17] = system: Candida albicans; assay: Antimicrobial activity against Candida albicans MTCC 3017 assessed as growth inhibition at 4 mg/ml after 24 hrs by agar well diffusion method; type: functional; details: MTCC 3017, 24 h, read-out: DIZ
[18] = system: Rattus norvegicus; assay: Antiinflammatory activity against carrageenan-induced paw edema male Wistar albino rat assessed as edema volume at 50 mg/kg, po administered 30 mins prior to carrageenan-challenge measured after 1 hr (reference value: 1.11 +/- 0.12 mL); type: functional
[19] = system: Saccharomyces cerevisiae; assay: Antimicrobial activity against Saccharomyces cerevisiae MTCC 170 assessed as growth inhibition after 24 hrs by agar well diffusion method; type: functional

Structure (SMILES) | MIC ([2]; MTCC 121, 24 h) | zone of inhibition at 4000 µg/mL [3] | zone of inhibition at 4000 µg/mL [4] | Activity [5] | MIC [6] | diameter of the inhibition zone (DIZ) [7] | diameter of the inhibition zone (DIZ) [8] | Activity [9] | Activity [10] | diameter of the inhibition zone (DIZ) [4] | DIZ [11] | Activity [12] | MIC [13] | Activity [14] | Activity [15] | Activity [16] | zone of inhibition at 4000 µg/mL [17] | Activity [18] | MIC [19] | zone of inhibition at 4000 µg/mL [8] | also measured
O=C(O)c1cn(C2CC2)c2cc(N3CCNCC3)c(F)cc2c1=O [CIPROFLOXACIN] | 6.25 µg/mL (≈ 18.9 µM) | 24 mm | 24 mm |  |  |  |  |  |  |  |  |  |  |  |  |  |  |  |  |  | zone of inhibition at 4000 µg/mL [1]: 22 mm
CCOC(=O)c1sc(-c2cn(-c3ccccc3)nc2-c2ccccc2)nc1-c1ccc(OC)cc1 | 50 µg/mL (≈ 104 µM) | 13.6 mm |  | 86.12% | 50 µg/mL (≈ 104 µM) | inactive | inactive | 0.29 mL | 76.03% | inactive | inactive | 81.91% | inactive | 80.18% | 0.34 mL | 0.24 mL | 16.3 mm | 0.22 mL | inactive |  | 
O=C(O)c1sc(-c2cn(-c3ccccc3)nc2-c2ccc(Cl)cc2)nc1-c1ccc(Cl)cc1 | 50 µg/mL (≈ 102 µM) | 16.6 mm |  | 75.14% | 12.5 µg/mL (≈ 25.4 µM) | inactive |  | 0.23 mL | 80.99% | inactive | inactive | 85.1% | inactive | 76.57% | 0.28 mL | 0.43 mL | 23.6 mm | 0.26 mL |  | 24.6 mm | MIC ([19]; MTCC 170, 24 h): 12.5 µg/mL (≈ 25.4 µM)
COc1ccc(-c2nn(-c3ccccc3)cc2-c2nc(-c3ccc(F)cc3)c(C(=O)O)s2)cc1 | 50 µg/mL (≈ 106 µM) | 12 mm | 12 mm | 82.08% | 50 µg/mL (≈ 106 µM) | inactive |  | 0.22 mL | 81.81% |  | inactive | 90.42% |  | 82.88% | 0.18 mL | 0.31 mL | 12 mm | 0.19 mL |  | 15.3 mm | MIC ([13]; MTCC 96, 24 h): 50 µg/mL (≈ 106 µM); MIC ([19]; MTCC 170, 24 h): 50 µg/mL (≈ 106 µM)
CCOC(=O)c1sc(-c2cn(-c3ccccc3)nc2-c2ccc(OC)cc2)nc1-c1ccc(Cl)cc1 | 50 µg/mL (≈ 96.9 µM) | 14.3 mm |  | 78.03% | 50 µg/mL (≈ 96.9 µM) | inactive | inactive | 0.38 mL | 68.59% | inactive | inactive | 71.8% | inactive | 86.48% | 0.53 mL | 0.38 mL | 14.3 mm | 0.15 mL | inactive |  | 
CCOC(=O)c1sc(-c2cn(-c3ccccc3)nc2-c2ccc(OC)cc2)nc1-c1ccc(F)cc1 | 25 µg/mL (≈ 50 µM) | 20.6 mm |  | 82.08% | 12.5 µg/mL (≈ 25 µM) | inactive | inactive | 0.18 mL | 85.12% | inactive | inactive | 80.31% | inactive | 83.78% | 0.37 mL | 0.31 mL | 24.6 mm | 0.18 mL | inactive |  | 
CCOC(=O)c1sc(-c2cn(-c3ccccc3)nc2-c2ccccc2)nc1-c1ccc(Cl)cc1 |  |  |  | 87.23% | 50 µg/mL (≈ 103 µM) | inactive | inactive | 0.15 mL | 87.6% | inactive | inactive | 87.23% | inactive | 80.18% | 0.22 mL | 0.24 mL | 17.3 mm | 0.22 mL | inactive |  | MIC [2]: inactive; diameter of the inhibition zone (DIZ) [3]: inactive
COc1ccc(-c2nn(-c3ccccc3)cc2-c2nc(-c3ccc(Cl)cc3)c(C(=O)O)s2)cc1 | 6.25 µg/mL (≈ 12.8 µM) | 29.6 mm | 24.6 mm | 83.81% | 6.25 µg/mL (≈ 12.8 µM) | inactive |  | 0.26 mL | 78.51% |  | inactive | 89.36% |  | 83.78% | 0.2 mL | 0.28 mL | 27.6 mm | 0.18 mL |  | 27.6 mm | MIC ([13]; MTCC 96, 24 h): 6.25 µg/mL (≈ 12.8 µM); MIC ([19]; MTCC 170, 24 h): 6.25 µg/mL (≈ 12.8 µM)
O=C(O)c1sc(-c2cn(-c3ccccc3)nc2-c2ccc(F)cc2)nc1-c1ccc(F)cc1 | 50 µg/mL (≈ 109 µM) | 17.6 mm | 15.3 mm | 64.73% | 25 µg/mL (≈ 54.4 µM) | inactive |  | 0.57 mL | 52.89% |  | inactive | 75% |  | 79.27% | 0.47 mL | 0.61 mL | 19.6 mm | 0.23 mL |  | 17.6 mm | MIC ([13]; MTCC 96, 24 h): 50 µg/mL (≈ 109 µM); MIC ([19]; MTCC 170, 24 h): 25 µg/mL (≈ 54.4 µM)
CCOC(=O)c1sc(-c2cn(-c3ccccc3)nc2-c2ccccc2)nc1-c1ccccc1 | 50 µg/mL (≈ 111 µM) | 11 mm | 14.3 mm | 83.81% | 50 µg/mL (≈ 111 µM) | inactive | inactive | 0.3 mL | 75.2% |  | inactive | 87.23% |  | 90.99% | 0.24 mL | 0.28 mL | 15.3 mm | 0.1 mL | inactive |  | MIC ([13]; MTCC 96, 24 h): 50 µg/mL (≈ 111 µM)
CCOC(=O)c1sc(-c2cn(-c3ccccc3)nc2-c2ccc(Cl)cc2)nc1-c1ccccc1 | 50 µg/mL (≈ 103 µM) | 12 mm |  | 81.5% | 50 µg/mL (≈ 103 µM) | inactive | inactive | 0.22 mL | 81.81% | inactive | inactive | 85.1% | inactive | 89.89% | 0.28 mL | 0.32 mL | 16 mm | 0.12 mL | inactive |  | 
